Results taken from patent publication US20200237670A1, “DYE-STABILIZED NANOPARTICLES AND METHODS OF THEIR MANUFACTURE AND THERAPEUTIC USE” (Memorial Sloan Kettering Cancer Center, priority 2015, published 2020).

Key:
[1] = tested on: BAEC, bEnd3, SB2, 3T3, BMDM and RAW264 cells; assay: In vitro uptake of IR783-SFB nanoparticles (fluorescence microscopy); format: cell-based; conditions: 2 h, 30 μg/ml particles or equivalent free dye
Procedure: Bone marrow derived macrophages (BMDM), RAW264 macrophages, and 3T3 fibroblasts did take up the nanoparticles efficiently. […] FIG. 4B depicts quantitative analysis of fluorescence intensity in the cell lines was conducted using ImageJ v1.40 (NIH, USA). The mean fluorescence intensities are expressed in arbitrary units per square micron. The increased uptake by endothelial cells and cancer cells as opposed to macrophages and fibroblasts is about 4 fold. FIG. 4C depicts confirmation of the differential uptake between cell lines, 3T3 fibroblasts (GFP) were co-cultured with SB2 liver cancer cells (RFP) to confluence and incubated with nanoparticles for 30 min. The cell morphology of the co-culture can be seen in bright light (upper left, DIC) and fluorescence channel (upper right).
The uptake of the sorafenib-IR783 nanoparticles (IR783-SFB) was tested in 6 cell types: endothelial cells (BAEC and bEnd3 cell line), liver HCC cells (SB2 cells, derived from the in vivo model), fibroblasts (3T3), and macrophages (BMDM and RAW264). The cells were incubated for 2 hours with 30 μg/ml and as a control with an equivalent amount of free IR783. The cells were washed and stained with Cell Mask (Life Sciences) for membrane staining and DAPI for nuclear staining. The cells were imaged with a florescence microscope equipped with an Indocyanine Green filter set, as depicted in FIGS. 4A-4B.

[2] = tested on: MYC-driven autochthonous murine hepatic tumor; assay: MYC/β-catenin driven liver tumor model: targeting and biodistribution; format: in vivo, FVB mice; conditions: near-IR fluorescence of livers 24 h after i.v. injection, sodium salt
Procedure: Sorafenib-containing nanoparticles were tested in vivo for imaging and treatment of hepatocellular carcinoma in an orthotopic model. FVB mice were transfected by hydrodynamic injection on day 0 with plasmids to C-Myc and beta-catenin to inoculate liver tumors. FIG. 5A depicts mice bearing liver tumors and healthy mice were injected with IR783-SFB (for example, at 20 mg/kg) at day 21 after inoculation. After 24 hours the livers were extracted and imaged using an IVIS Preclinical In Vivo Imaging System (Perkin Elmer) in fluorescence imaging mode. […] The tumors were also imaged by their GFP expression (right panel). […] The GFP expression in the tumors was also imaged (right panel).
Next, the biodistribution of INPs in a MYC-driven murine hepatic tumor model was evaluated. To generate autochthonous liver tumors, Sleeping Beauty transposon vectors encoding c-Myc and mutant β-catenin (coupled to GFP) were hydrodynamically delivered into immunocompetent FVB mice along with a vector encoding Sleeping Beauty transposase as described herein.
Hydrodynamic transfection was performed. […] Tumors were evaluated using fluorescence imaging (IVIS imaging system, Xenogen Corp., Hopkinton, Mass.) and immunohistochemistry (H&E). Tumor volume was measured using a caliper.

[3] = tested on: endothelial cells; 3T3-GFP / SB2 co-culture; assay: Photodynamic therapy in cell culture (NIR irradiation); format: cell-based; conditions: 30 min incubation, 1 min xenon lamp, imaged after 24 h
Procedure: The IR783-SFB nanoparticles were tested for the application of photodynamic therapy. The […] properties of the dyes may provide an added therapeutic benefit of the targeted nanoparticles. Endothelial and cancer cells were incubated with the nanoparticles for 30 min and then washed and exposed to NIR light from a Xenon lamp for 1 min. […] FIG. 8A depicts endothelial cells that were incubated for 30 min with NP and irradiated for 1 min with a xenon lamp (Xcite) using an ICG filter set (Chroma). […] After 24 h, the morphology of the irradiated area was altered and cells detached after washing (upper right).

[4] = tested on: MYC-driven autochthonous murine hepatic tumor; assay: MYC/β-catenin driven liver tumor model: anti-tumor efficacy; format: in vivo, FVB mice; conditions: 30 mg/kg sorafenib p.o. or as INP i.v., weekly for three weeks; endpoint about day 60
Procedure: For example, here 20 FVB mice were administered a hydrodynamic injection on day 0 with plasmids to C-Myc and beta-catenin to initiate liver tumors. The efficacy of IR783-SFB was compared to oral SFB. Treatments started at day 21 after inoculation and were administrated once weekly for 3 weeks.
To test the therapeutic potential of the INPs in vivo, the anti-tumor efficacy of equivalent drug doses in the liver cancer mouse model described above were either delivered intravenously via INPs or the orally administered free drug. Sorafenib or sorafenib INPs were injected weekly over the course of three weeks. […] Furthermore, quantitative measures of liver weight, tumor volume, and GFP emission confirmed virtually complete tumor eradication in INP-treated livers (FIGS. 12D-12F).
Hydrodynamic transfection was performed. Specifically, 10 μg pT3-EF1a-c-myc, 10 μg pT3-EF1a-β-CateninT41A-IRES-GFP and CMV-SB13 Sleeping Beauty transposase (1:5 ratio) were mixed in sterile saline solution. A total volume of plasmid-saline solution mix corresponding to 10% of the body weight was injected into the lateral tail vein of 6- to 8-week old female FVB/N mice (Jackson Laboratory, Me., USA) within 5-7 seconds. […] Tumors were evaluated using fluorescence imaging (IVIS imaging system, Xenogen Corp., Hopkinton, Mass.) and immunohistochemistry (H&E). Tumor volume was measured using a caliper.

[5] = Nanoparticle formation with indocyanine IR783 by nano-precipitation (DLS / visual precipitation)

CC1(C)C(=CC=C2CCCC(C=CC3=[N+](CCCCS(=O)(=O)[O-])c4ccccc4C3(C)C)=C2Cl)N(CCCCS(=O)(=O)[O-])c2ccccc21.[Na+] [IR783, 2-[2-[2-Chloro-3-[2-[1,3-dihydro-3,3-dimethyl-1-(4-sulfobutyl)-2H-indol-2-ylidene]-ethylidene]-1-cyclohexen-1-yl]-ethenyl]-3,3-dimethyl-1-(4-sulfobutyl)-3H-indolium hydroxide, inner salt sodium salt]
uptake (internalization) in cell lines [1]: does not internalize in the cells
accumulation in liver tumors ([2]; listed as free indocyanine): did not accumulate in tumors
accumulation in liver tumors [2]: does not accumulate
effect on cells after NIR irradiation [3]: no significant effect

CNC(=O)c1cc(Oc2ccc(NC(=O)Nc3ccc(Cl)c(C(F)(F)F)c3)cc2)ccn1 [Sorafenib]
anti-tumor efficacy in liver tumor model [4]: multiple liver tumors

Cc1onc(-c2ccccc2)c1-c1ccc(S(N)(=O)=O)cc1 [Valdecoxib]
formation of nanoparticles with indocyanine [5]: did not
